Results reported in patent US20240327364A1, “THERAPEUTIC TARGETING OF GPR68 TO INDUCE FERROPTOSIS” (University Of Maryland, Baltimore, priority 2023, published 2024).

Experiments:
[1] = target: T1, ABL1(F317L)-phosphorylated (Homo sapiens, UniProt P00519, F317L); assay: KinomeScan; format: binding; settings: read-out: % Control
T1 construct: purchased DiscoveRx

[2] = target: T2, ACVR1 (Homo sapiens, UniProt Q04771); assay: KinomeScan; format: binding; settings: read-out: % Control
T2 construct: purchased DiscoveRx

[3] = target: T3, AMPK-alpha1 (Homo sapiens, UniProt Q13131); assay: KinomeScan; format: binding; settings: read-out: % Control
T3 construct: purchased DiscoveRx (Fremont, CA)

[4] = target: T4, AMPK-alpha2 (Homo sapiens, UniProt P54646); assay: KinomeScan; format: binding; settings: read-out: % Control
T4 construct: purchased DiscoveRx (Fremont, CA)

[5] = target: T5, AXL (Homo sapiens, UniProt P30530); assay: KinomeScan; format: binding; settings: read-out: % Control
T5 construct: purchased DiscoveRx (Fremont, CA)

[6] = target: T6, CAMK2A (Homo sapiens, UniProt Q9UQM7); assay: KinomeScan; format: binding; settings: read-out: % Control
T6 construct: purchased DiscoveRx (KinomeScan service)

[7] = target: T7, CDK2 (Homo sapiens, UniProt P24941); assay: KinomeScan; format: binding; settings: read-out: % Control
T7 construct: purchased DiscoveRx (KinomeScan service)

[8] = target: DAPK1 (Homo sapiens, UniProt P53355); assay: KinomeScan; format: binding; settings: read-out: % Control
[9] = target: T8, DCAMKL2 (Homo sapiens, UniProt Q8N568); assay: KinomeScan; format: binding; settings: read-out: % Control
T8 construct: purchased DiscoveRx (Fremont, CA), KinomeScan service

[10] = target: T9, DLK (Homo sapiens, UniProt Q12852); assay: KinomeScan; format: binding; settings: read-out: % Control
T9 construct: purchased DiscoveRx (Fremont, CA), KinomeScan service

[11] = target: T10, GCN2(Kin.Dom.2, S808G) (Homo sapiens, UniProt Q9P2K8, S808G); assay: KinomeScan; format: binding; settings: read-out: % Control
T10 construct: GCN2(Kin.Dom.2, S808G); purchased DiscoveRx (Fremont, CA)

[12] = target: T11, JNK1 (Homo sapiens, UniProt P45983); assay: KinomeScan; format: binding; settings: read-out: % Control
T11 construct: purchased DiscoveRx

[13] = target: T12, LATS1 (Homo sapiens, UniProt O95835); assay: KinomeScan; format: binding; settings: read-out: % Control
T12 construct: purchased DiscoveRx

[14] = target: T13, MAP3K3 (Homo sapiens, UniProt Q99759); assay: KinomeScan; format: binding; settings: read-out: % Control
T13 construct: purchased DiscoveRx (Fremont, CA)

[15] = target: T14, PDGFRB (Homo sapiens, UniProt P09619); assay: KinomeScan; format: binding; settings: read-out: % Control
T14 construct: purchased DiscoveRx (Fremont, CA)

[16] = target: T15, PHKG1 (Homo sapiens, UniProt Q16816); assay: KinomeScan; format: binding; settings: read-out: % Control
T15 construct: purchased DiscoveRx (Fremont, CA)

[17] = target: T16, PIK3CA (Homo sapiens, UniProt P42336); assay: KinomeScan; format: binding; settings: read-out: % Control
T16 construct: purchased DiscoveRx (Fremont, CA)

[18] = target: T17, PRKCH (Homo sapiens, UniProt P24723); assay: KinomeScan; format: binding; settings: read-out: % Control
T17 construct: purchased DiscoveRx (Fremont, CA)

[19] = target: T18, RPS6KA4(Kin.Dom.1-N-terminal) (Homo sapiens, UniProt O75676); assay: KinomeScan; format: binding; settings: read-out: % Control
T18 construct: RPS6KA4(Kin.Dom.1-N-terminal); purchased DiscoveRx (Fremont, CA)

[20] = target: T19, SBK1 (Homo sapiens, UniProt Q52WX2); assay: KinomeScan; format: binding; settings: read-out: % Control
T19 construct: purchased DiscoveRx (Fremont, CA)

[21] = target: T20, STK33 (Homo sapiens, UniProt Q9BYT3); assay: KinomeScan; format: binding; settings: read-out: % Control
T20 construct: purchased DiscoveRx (Fremont, CA)

[22] = target: T21, TTK (Homo sapiens, UniProt P33981); assay: KinomeScan; format: binding; settings: read-out: % Control
T21 construct: purchased DiscoveRx

[23] = target: T22, C5aR (Homo sapiens, UniProt P21730); assay: GPCR Profiler; format: cell-based
T22 construct: host or cells: Chem-1 cells with promiscuous Gα15

[24] = target: T23, D1 (Homo sapiens, UniProt P21728); assay: GPCR Profiler; format: cell-based
T23 construct: host or cells: Chem-1 cells with Gα15

[25] = target: T24, D5 (Homo sapiens, UniProt P21918); assay: GPCR Profiler; format: cell-based
T24 construct: host or cells: Chem-1 cells expressing Gα15

[26] = target: T25, GABAB1b (Homo sapiens, UniProt Q9UBS5); assay: GPCR Profiler; format: cell-based
T25 construct: host or cells: Chem-1 cells expressing Gα15

[27] = target: T26, MrgD (Homo sapiens, UniProt Q8TDS7); assay: GPCR Profiler; format: cell-based
T26 construct: host or cells: Chem-1 cells expressing Gα15

[28] = target: T27, sst3 (Homo sapiens, UniProt P32745); assay: GPCR Profiler; format: cell-based
T27 construct: host or cells: Chem-1 cells with Gα15
T27 sequence (P32745 whole entry, species assumed): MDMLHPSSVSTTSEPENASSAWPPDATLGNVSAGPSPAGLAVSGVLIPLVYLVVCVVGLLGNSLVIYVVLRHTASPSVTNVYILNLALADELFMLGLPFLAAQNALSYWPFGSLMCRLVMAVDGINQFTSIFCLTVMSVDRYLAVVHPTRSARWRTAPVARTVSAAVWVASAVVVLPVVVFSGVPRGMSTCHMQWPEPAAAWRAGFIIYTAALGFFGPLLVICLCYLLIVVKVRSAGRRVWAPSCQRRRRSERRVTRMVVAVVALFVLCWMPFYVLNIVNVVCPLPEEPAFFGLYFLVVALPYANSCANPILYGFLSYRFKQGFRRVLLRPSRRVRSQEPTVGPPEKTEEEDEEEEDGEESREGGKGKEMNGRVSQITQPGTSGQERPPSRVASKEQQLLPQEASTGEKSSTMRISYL

T23 sequence (P21728 whole entry): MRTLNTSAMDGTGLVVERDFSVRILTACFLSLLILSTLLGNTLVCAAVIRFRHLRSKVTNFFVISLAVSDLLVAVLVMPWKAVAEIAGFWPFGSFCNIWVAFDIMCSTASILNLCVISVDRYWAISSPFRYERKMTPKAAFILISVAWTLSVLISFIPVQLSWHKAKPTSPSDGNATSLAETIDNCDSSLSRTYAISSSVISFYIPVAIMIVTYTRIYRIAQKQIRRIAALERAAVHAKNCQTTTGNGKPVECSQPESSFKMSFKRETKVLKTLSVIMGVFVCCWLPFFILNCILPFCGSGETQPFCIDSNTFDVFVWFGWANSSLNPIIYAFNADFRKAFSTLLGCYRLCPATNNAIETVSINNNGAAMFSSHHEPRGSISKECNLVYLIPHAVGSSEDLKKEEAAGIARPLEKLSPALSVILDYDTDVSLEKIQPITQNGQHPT
T25 sequence (Q9UBS5 1-844 isoform Q9UBS5-2): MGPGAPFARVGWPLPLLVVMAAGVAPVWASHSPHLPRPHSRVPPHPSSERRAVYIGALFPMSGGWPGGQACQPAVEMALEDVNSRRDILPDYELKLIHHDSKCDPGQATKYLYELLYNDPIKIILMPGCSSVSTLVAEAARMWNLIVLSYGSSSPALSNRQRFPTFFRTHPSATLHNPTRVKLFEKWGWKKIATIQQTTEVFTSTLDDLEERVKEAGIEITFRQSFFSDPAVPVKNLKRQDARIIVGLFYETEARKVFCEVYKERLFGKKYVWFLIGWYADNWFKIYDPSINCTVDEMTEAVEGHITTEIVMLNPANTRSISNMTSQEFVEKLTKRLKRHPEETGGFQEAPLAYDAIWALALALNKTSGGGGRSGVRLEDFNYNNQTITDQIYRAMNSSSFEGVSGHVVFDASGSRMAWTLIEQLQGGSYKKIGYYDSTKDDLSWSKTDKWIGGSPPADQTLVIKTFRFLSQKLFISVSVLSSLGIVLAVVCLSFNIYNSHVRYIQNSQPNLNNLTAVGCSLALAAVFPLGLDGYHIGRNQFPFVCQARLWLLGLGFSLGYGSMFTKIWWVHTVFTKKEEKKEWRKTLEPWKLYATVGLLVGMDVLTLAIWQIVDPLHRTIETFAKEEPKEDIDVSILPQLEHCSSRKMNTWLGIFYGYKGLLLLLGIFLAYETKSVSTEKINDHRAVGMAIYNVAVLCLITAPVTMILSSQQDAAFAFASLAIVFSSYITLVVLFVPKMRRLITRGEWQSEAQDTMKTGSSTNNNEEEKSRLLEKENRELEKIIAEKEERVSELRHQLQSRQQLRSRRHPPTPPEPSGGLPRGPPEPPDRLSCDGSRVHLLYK
T25 sequence (O75899 42-941 partner): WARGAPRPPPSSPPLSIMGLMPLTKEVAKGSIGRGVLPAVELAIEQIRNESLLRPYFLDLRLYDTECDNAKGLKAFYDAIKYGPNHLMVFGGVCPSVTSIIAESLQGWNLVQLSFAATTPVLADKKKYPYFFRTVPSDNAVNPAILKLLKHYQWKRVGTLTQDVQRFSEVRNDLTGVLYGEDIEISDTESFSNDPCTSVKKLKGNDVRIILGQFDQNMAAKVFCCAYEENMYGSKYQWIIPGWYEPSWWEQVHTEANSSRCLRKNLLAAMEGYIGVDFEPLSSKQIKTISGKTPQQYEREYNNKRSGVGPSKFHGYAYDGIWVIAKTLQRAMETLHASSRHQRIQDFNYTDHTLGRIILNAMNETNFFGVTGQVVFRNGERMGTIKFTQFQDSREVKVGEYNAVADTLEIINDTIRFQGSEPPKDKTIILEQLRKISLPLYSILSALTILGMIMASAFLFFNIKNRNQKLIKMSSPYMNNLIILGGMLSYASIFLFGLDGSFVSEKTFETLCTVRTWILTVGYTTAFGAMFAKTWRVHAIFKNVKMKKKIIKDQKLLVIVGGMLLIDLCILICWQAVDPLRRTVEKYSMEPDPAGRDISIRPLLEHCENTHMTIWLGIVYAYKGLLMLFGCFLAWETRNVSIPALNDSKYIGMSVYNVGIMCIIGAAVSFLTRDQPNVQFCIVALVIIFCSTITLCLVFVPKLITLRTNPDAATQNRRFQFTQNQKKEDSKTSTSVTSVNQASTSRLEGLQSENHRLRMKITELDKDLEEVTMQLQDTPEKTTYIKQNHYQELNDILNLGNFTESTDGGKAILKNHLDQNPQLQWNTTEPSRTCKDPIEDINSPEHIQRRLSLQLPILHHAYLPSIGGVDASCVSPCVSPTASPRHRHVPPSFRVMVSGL
T26 sequence (Q8TDS7 whole entry, species assumed): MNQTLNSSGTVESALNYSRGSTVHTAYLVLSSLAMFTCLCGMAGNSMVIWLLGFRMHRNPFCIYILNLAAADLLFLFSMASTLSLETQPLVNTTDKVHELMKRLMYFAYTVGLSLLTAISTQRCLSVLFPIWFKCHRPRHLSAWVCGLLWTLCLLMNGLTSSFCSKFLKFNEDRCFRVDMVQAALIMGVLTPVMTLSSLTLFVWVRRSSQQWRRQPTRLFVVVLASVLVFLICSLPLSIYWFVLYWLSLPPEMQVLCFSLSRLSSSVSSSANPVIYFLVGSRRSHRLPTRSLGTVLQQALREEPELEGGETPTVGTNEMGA
T24 sequence (P21918 whole entry): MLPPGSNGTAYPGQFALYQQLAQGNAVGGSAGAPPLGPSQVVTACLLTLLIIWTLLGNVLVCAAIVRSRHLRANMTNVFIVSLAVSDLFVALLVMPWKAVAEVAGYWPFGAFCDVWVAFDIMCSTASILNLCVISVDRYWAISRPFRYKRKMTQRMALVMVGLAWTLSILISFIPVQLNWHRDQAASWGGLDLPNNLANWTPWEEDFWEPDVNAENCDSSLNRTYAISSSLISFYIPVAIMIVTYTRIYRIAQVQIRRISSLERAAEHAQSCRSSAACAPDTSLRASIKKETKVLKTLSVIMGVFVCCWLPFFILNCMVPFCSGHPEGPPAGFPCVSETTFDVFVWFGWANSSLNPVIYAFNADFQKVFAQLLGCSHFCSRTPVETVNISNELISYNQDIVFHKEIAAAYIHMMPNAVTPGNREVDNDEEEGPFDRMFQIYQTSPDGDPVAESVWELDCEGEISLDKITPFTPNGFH
T22 sequence (P21730 whole entry, species assumed): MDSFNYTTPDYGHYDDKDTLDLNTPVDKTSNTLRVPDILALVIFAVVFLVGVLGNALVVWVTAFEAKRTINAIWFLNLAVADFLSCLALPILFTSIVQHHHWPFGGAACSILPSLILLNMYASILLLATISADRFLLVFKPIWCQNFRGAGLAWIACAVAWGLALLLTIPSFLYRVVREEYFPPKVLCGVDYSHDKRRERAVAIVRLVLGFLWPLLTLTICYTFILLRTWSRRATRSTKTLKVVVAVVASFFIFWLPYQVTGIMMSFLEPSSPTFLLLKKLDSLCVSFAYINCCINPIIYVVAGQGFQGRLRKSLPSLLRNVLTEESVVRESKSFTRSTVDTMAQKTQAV
T21 sequence (P33981 whole entry): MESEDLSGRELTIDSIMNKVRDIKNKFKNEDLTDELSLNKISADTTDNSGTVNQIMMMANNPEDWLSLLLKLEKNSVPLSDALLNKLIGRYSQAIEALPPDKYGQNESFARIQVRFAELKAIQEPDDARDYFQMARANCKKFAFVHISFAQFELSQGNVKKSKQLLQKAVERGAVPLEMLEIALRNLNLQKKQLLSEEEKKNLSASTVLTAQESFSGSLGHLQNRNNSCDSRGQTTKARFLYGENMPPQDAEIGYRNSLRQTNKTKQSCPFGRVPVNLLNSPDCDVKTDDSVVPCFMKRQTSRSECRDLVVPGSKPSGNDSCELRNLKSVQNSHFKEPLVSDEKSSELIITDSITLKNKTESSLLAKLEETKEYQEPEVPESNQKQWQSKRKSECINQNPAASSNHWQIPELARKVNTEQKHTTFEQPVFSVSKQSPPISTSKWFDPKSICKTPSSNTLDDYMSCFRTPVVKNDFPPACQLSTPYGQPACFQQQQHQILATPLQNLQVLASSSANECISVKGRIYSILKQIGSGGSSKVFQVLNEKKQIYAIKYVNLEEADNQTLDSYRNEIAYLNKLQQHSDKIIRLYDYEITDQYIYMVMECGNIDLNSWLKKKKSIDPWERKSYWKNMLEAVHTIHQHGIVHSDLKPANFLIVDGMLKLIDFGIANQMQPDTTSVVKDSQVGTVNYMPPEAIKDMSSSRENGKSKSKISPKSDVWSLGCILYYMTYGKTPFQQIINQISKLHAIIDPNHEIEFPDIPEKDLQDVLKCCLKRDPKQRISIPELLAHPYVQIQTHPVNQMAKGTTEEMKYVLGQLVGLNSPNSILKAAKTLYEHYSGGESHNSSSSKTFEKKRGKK
T10 sequence (Q9P2K8 590-1001 S808G limits assumed): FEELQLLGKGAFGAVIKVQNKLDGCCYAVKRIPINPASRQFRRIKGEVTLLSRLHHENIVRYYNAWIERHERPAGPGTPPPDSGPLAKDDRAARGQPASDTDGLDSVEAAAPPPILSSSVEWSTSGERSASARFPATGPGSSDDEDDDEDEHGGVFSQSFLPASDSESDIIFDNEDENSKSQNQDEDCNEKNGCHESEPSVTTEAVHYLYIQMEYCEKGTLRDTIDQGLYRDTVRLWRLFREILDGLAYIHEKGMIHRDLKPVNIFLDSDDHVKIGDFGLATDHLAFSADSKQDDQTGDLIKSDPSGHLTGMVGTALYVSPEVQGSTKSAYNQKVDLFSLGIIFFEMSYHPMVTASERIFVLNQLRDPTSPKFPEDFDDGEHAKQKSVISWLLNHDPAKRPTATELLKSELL

With `CCc1ccc2c(c1)C1(NN=C(c3cccc4ccccc34)S1)C(=O)N2` (stereo not shown) [OGM1, 5-ethyl-5′-naphthalen-1-ylspiro[1H-indole-3,2′-3H-1,3,4-thiadiazole]-2-one] the remaining binding at 10 µM [1] was 92%, the remaining binding at 10 µM [2] was 100% and the remaining binding at 10 µM [3] was 100%. The remaining binding at 10 µM [4] was 100%, the remaining binding at 10 µM [5] was 100% and the remaining binding at 10 µM [6] was 75%. For the same molecule, the remaining binding at 10 µM [7] was 100%, the remaining binding at 10 µM [8] was 90% and the remaining binding at 10 µM [9] was 100%. It also gave a remaining binding at 10 µM [10] of 40%, a remaining binding at 10 µM [11] of 100% and a remaining binding at 10 µM [12] of 63%. The remaining binding at 10 µM [13] was 100%, the remaining binding at 10 µM [14] was 72% and the remaining binding at 10 µM [15] was 72%. For the same molecule, the remaining binding at 10 µM [16] was 91%, the remaining binding at 10 µM [17] was 100% and the remaining binding at 10 µM [18] was 100%. For the same molecule, the remaining binding at 10 µM [19] was 92%, the remaining binding at 10 µM [20] was 100% and the remaining binding at 10 µM [21] was 91%. The remaining binding at 10 µM [22] was 75%, the Antagonism ([23]; 10 uM) was −0.7 and the Agonism ([23]; 12.5 uM) was 3.1. The Antagonism ([24]; 10 uM) was 5, the Agonism ([24]; 12.5 uM) was 0 and the Antagonism ([25]; 10 uM) was −17.8. The Agonism ([25]; 12.5 uM) was −1.8, the Antagonism ([26]; 10 uM) was 0.1 and the Agonism ([26]; 12.5 uM) was 0.6. The Antagonism ([27]; 10 uM) was −2.2, the Agonism ([27]; 12.5 uM) was −0.1 and the Antagonism ([28]; 10 uM) was 0. It also gave an Agonism ([28]; 12.5 uM) of 0.
